Test results reported in patent US20240368203A1, “DEGRADATION OF (EGFR) BY CONJUGATION OF EGFR INHIBITORS WITH E3 LIGASE LIGAND AND METHODS OF USE” (BeiGene, Ltd., priority 2022, published 2024).

What was measured:
EGFR-Del19/T790M/C797S = assay: EGFR degradation HTRF assay in H1975-clone #28 cells; format: cell-based; details: H1975-clone #28 (Del19/T790M/C797S) cells, 16 h treatment; for DC50: IC50 (DC50), read-out: DC50(nM) H1975 # 28 DTC; for Dmax (%) H1975 # 28 DTC: maximum percentage of inhibition (degradation)
Procedure, shortened: (§1)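 H1975 clones with endogenous EGFR knocked out, homozygously expressing lentiviral L858R/T790M/C797S (#25) or Del19/T790M/C797S (#28), treated 16 h at 37° C with 8 doses from 10 uM, 5-fold, in 0.2% DMSO. EGFR in lysates measured by HTRF overnight; DC50 from four-parameter fit of % degradation.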

EGFR-L858R/T790M/C797S = target: T1, EGFR-L858R/T790M/C797S (Homo sapiens, UniProt P00533, C797S/L858R/T790M); assay: EGFR degradation HTRF assay in H1975-clone #25 cells; format: cell-based; details: 16 h treatment; for DC50: H1975-clone #25 (L858R/T790M/C797S) cells, IC50 (DC50), read-out: DC50(nM) H1975 # 25-LTC; for Dmax: NCI-H1975, H1975-clone #25 (L858R/T790M/C797S) cells, maximum percentage of inhibition (degradation), read-out: Dmax (%) H1975 # 25-LTC
T1 construct: expressed in transfected cells; host or cells: H1975-clone #25 (lentiviral over-expression, endogenous EGFR knocked out)
Procedure, shortened: as §1

T1 sequence (P00533 25-1210 T790M/C797S/L858R): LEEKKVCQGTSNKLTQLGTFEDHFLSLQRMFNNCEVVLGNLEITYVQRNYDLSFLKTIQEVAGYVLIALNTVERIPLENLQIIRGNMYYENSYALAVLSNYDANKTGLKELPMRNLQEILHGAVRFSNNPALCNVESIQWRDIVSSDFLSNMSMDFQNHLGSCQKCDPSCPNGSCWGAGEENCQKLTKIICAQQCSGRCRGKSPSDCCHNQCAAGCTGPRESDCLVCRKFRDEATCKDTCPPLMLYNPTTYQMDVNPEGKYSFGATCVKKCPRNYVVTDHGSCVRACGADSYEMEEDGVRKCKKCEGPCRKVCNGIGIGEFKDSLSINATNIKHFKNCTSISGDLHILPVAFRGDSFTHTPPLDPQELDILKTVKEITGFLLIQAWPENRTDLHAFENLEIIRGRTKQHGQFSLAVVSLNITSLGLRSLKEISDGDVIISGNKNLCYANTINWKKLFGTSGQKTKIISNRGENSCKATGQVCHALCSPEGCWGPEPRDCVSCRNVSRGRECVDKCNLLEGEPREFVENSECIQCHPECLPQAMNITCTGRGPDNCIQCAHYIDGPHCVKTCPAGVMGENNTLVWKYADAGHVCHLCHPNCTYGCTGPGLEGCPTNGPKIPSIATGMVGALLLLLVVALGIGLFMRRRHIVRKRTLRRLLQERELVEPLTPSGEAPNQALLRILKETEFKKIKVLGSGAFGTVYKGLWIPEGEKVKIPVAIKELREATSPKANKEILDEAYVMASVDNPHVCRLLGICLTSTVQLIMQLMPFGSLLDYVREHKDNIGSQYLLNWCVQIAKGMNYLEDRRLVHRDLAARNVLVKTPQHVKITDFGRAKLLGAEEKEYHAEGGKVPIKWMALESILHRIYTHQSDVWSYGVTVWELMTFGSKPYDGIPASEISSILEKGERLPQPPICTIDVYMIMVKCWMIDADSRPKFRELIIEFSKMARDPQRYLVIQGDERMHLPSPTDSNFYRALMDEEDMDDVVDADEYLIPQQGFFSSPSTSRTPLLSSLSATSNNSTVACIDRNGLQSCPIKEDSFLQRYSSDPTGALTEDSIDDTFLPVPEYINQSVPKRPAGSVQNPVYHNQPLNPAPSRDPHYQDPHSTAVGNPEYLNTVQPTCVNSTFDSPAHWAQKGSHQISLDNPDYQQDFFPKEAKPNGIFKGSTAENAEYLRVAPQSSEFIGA

Compound	DC50 (EGFR-Del19/T790M/C797S) [nM]	Dmax (%) H1975 # 28 DTC (EGFR-Del19/T790M/C797S) [%]	DC50 (EGFR-L858R/T790M/C797S) [nM]	Dmax (EGFR-L858R/T790M/C797S) [%]
CCc1cc(Nc2ncc(Br)c(Nc3ccc4nc(C)c(F)cc4c3P(C)(C)=O)n2)c(OC)cc1N1CCC2(CC1)CCN(C1CN(c3cc(F)c([C@H]4CCC(=O)NC4=O)c(F)c3)C1)CC2 [Example 38, (R)-3-(4-(3-(9-(4-((5-bromo-4-((5-(dimethylphosphoryl)-3-fluoro-2-methylquinolin-6-yl)amino)pyrimidin-2-yl)amino)-2-ethyl-5-methoxyphenyl)-3,9-diazaspiro[5.5]undecan-3-yl)azetidin-1-yl)-2,6-difluorophenyl)piperidine-2,6-dione]	7.4	85	8.6	89
CCc1cc(Nc2ncc(Br)c(Nc3ccc4nc(C)c(F)cc4c3P(C)(C)=O)n2)c(OC)cc1N1CCC2(CCN(CC3CN(c4cc(F)c([C@H]5CCC(=O)NC5=O)c(F)c4)C3)CC2)CC1 [Example 39, (R)-3-(4-(3-((9-(4-((5-bromo-4-((5-(dimethylphosphoryl)-3-fluoro-2-methylquinolin-6-yl)amino)pyrimidin-2-yl)amino)-2-ethyl-5-methoxyphenyl)-3,9-diazaspiro[5.5]undecan-3-yl)methyl)azetidin-1-yl)-2,6-difluorophenyl)piperidine-2,6-dione]	2.6	92	5.6	93
CCOc1cc(N2CCC(N3CC4(CCN(c5cc(F)c([C@H]6CCC(=O)NC6=O)c(F)c5)CC4)C3)CC2)c(CC)cc1Nc1ncc(Cl)c(Nc2ccc3nc(C)c(F)cc3c2P(C)(C)=O)n1 [Example 59, (R)-3-(4-(2-(1-(4-((5-chloro-4-((5-(dimethylphosphoryl)-3-fluoro-2-methylquinolin-6-yl)amino)pyrimidin-2-yl)amino)-5-ethoxy-2-ethylphenyl)piperidin-4-yl)-2,7-diazaspiro[3.5]nonan-7-yl)-2,6-difluorophenyl)piperidine-2,6-dione]	3.8	87	2.7	92
CCc1ncc2c(P(C)(C)=O)c(Nc3nc(Nc4cc(C)c(N5CCC6(CCN(CCc7cc(F)c([C@H]8CCC(=O)NC8=O)c(F)c7)CC6)CC5)cc4OC)ncc3Cl)ccc2n1 [Example 42, (R)-3-(4-(2-(9-(4-((5-chloro-4-((5-(dimethylphosphoryl)-2-ethylquinazolin-6-yl)amino)pyrimidin-2-yl)amino)-5-methoxy-2-methylphenyl)-3,9-diazaspiro[5.5]undecan-3-yl)ethyl)-2,6-difluorophenyl)piperidine-2,6-dione]	1.5	93	4.9	85
CCc1ncc2c(P(C)(C)=O)c(Nc3nc(Nc4cc(CC)c(N5CCC(N6CC7(CCN(c8cc(F)c([C@H]9CCC(=O)NC9=O)c(F)c8)CC7)C6)CC5)cc4OC)ncc3Br)ccc2n1 (single isomer, unassigned) [Example 20]	2.9	90	1.4	92
CCc1cc(Nc2ncc(Br)c(Nc3ccc4nc(C)c(F)cc4c3P(C)(C)=O)n2)c(OC)cc1N1CCC2(CC1)CCN(C1CCN(c3ccc4c(c3)C(=O)N(C3CCC(=O)NC3=O)C4=O)CC1)CC2 (centres unmarked) [Example 92, 5-(4-(9-(4-((5-bromo-4-((5-(dimethylphosphoryl)-3-fluoro-2-methylquinolin-6-yl)amino)pyrimidin-2-yl)amino)-2-ethyl-5-methoxyphenyl)-3,9-diazaspiro[5.5]undecan-3-yl)piperidin-1-yl)-2-(2,6-dioxopiperidin-3-yl)isoindoline-1,3-dione]	3.3	67	8.2	85
CCc1ccc2c(P(C)(C)=O)c(Nc3nc(Nc4cc(CC)c(N5CCC(N6CCC(N7CC(c8cccc9c8n(C)c(=O)n9C8CCC(=O)NC8=O)C7)CC6)CC5)cc4OC)ncc3Br)ccc2n1 (centres unmarked) [Example 63, 3-(4-(1-(1′-(4-((5-bromo-4-((5-(dimethylphosphoryl)-2-ethylquinolin-6-yl)amino)pyrimidin-2-yl)amino)-2-ethyl-5-methoxyphenyl)-[1,4′-bipiperidin]-4-yl)azetidin-3-yl)-3-methyl-2-oxo-2,3-dihydro-1H-benzo[d]imidazol-1-yl)piperidine-2,6-dione]	4.7	74	2.7	77
CCc1ccc2c(P(C)(C)=O)c(Nc3nc(Nc4cc(CC)c(N5CCC(N6CC7(CCN(c8cc(F)c([C@H]9CCC(=O)NC9=O)c(F)c8)CC7)C6)CC5)cc4OC)ncc3Br)ccc2n1 [Example 58, (R)-3-(4-(2-(1-(4-((5-bromo-4-((5-(dimethylphosphoryl)-2-ethylquinolin-6-yl)amino)pyrimidin-2-yl)amino)-2-ethyl-5-methoxyphenyl)piperidin-4-yl)-2,7-diazaspiro[3.5]nonan-7-yl)-2,6-difluorophenyl)piperidine-2,6-dione]	1.6	91	3.1	91
CCOc1cc(N2CCC(N3CC4(CCN(c5cccc6c5n(C)c(=O)n6C5CCC(=O)NC5=O)CC4)C3)CC2)c(CC)cc1Nc1ncc(Cl)c(Nc2ccc3nc(C)c(F)cc3c2P(C)(C)=O)n1 (centres unmarked) [Example 32, 3-(4-(2-(1-(4-((5-chloro-4-((5-(dimethylphosphoryl)-3-fluoro-2-methylquinolin-6-yl)amino)pyrimidin-2-yl)amino)-5-ethoxy-2-ethylphenyl)piperidin-4-yl)-2,7-diazaspiro[3.5]nonan-7-yl)-3-methyl-2-oxo-2,3-dihydro-1H-benzol[d]imidazol-1-yl)piperidine-2,6-dione]	1.4	77	1.3	81
CCc1cc(Nc2ncc(Cl)c(Nc3ccc4nc(C)c(F)cc4c3P(C)(C)=O)n2)c(OC)cc1N1CCC2(CCN(CCc3cc(F)c([C@H]4CCC(=O)NC4=O)c(F)c3)CC2)CC1 [Example 41, (R)-3-(4-(2-(9-(4-((5-chloro-4-((5-(dimethylphosphoryl)-3-fluoro-2-methylquinolin-6-yl)amino)pyrimidin-2-yl)amino)-2-ethyl-5-methoxyphenyl)-3,9-diazaspiro[5.5]undecan-3-yl)ethyl)-2,6-difluorophenyl)piperidine-2,6-dione]	4.2	86	4.2	88
CCc1cc(Nc2ncc(Br)c(Nc3ccc4nc(C)c(F)cc4c3P(C)(C)=O)n2)c(OC)cc1N1CC2(C1)CN(C1CCN(c3cc(F)c([C@H]4CCC(=O)NC4=O)c(F)c3)CC1)C2 [Example 64, (R)-3-(4-(4-(6-(4-((5-bromo-4-((5-(dimethylphosphoryl)-3-fluoro-2-methylquinolin-6-yl)amino)pyrimidin-2-yl)amino)-2-ethyl-5-methoxyphenyl)-2,6-diazaspiro[3.3]heptan-2-yl)piperidin-1-yl)-2,6-difluorophenyl)piperidine-2,6-dione]	1.1	94	1.5	95
